PubChem BioAssay AID248 (DTP/NCI, 2004)
Values joined by “and” are separate entries in the source; they are usually repeats but may differ in a detail not shown here. Equal values may be shown once. Toxic doses and inconclusive results are not listed. Cut-off read from the data, not from the text of the source: active = T/C of 150% or more; inactive = T/C below 125%.

System: L1210 leukemia ip in BDF1 mice, survival T/C
Experiment: NCI In Vivo Anticancer Drug Screen. Data for tumor model L1210 Leukemia (intraperitoneal) in B6D2F1 (BDF1) mice
Conditions: endpoint: mean survival time, higher = longer survival
How it was run: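 Survival endpoint. Drug-treated group vs vehicle group, expressed as T divided by C. Tumor passaged by transplantation.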

[1] = dose: 100.0 mg/kg/injection, schedule: Q04DX003 (ip), vehicle: saline
[2] = dose: 200.0 mg/kg/injection, schedule: Q04DX003 (ip), vehicle: saline
[3] = dose: 400.0 mg/kg/injection, schedule: Q04DX003 (ip), vehicle: saline
[4] = dose: 100.0 mg/kg/injection, schedule: Q01DX009 (ip), vehicle: Klucel (hydroxypropylcellulose) (HPC)
[5] = dose: 100.0 mg/kg/injection, schedule: Q04DX002 (ip), vehicle: Klucel (hydroxypropylcellulose) (HPC)
[6] = dose: 200.0 mg/kg/injection, schedule: Q01DX009 (ip), vehicle: Klucel (hydroxypropylcellulose) (HPC)
[7] = dose: 200.0 mg/kg/injection, schedule: Q04DX002 (ip), vehicle: Klucel (hydroxypropylcellulose) (HPC)
[8] = dose: 400.0 mg/kg/injection, schedule: Q01DX009 (ip), vehicle: Klucel (hydroxypropylcellulose) (HPC)
[9] = dose: 400.0 mg/kg/injection, schedule: Q04DX002 (ip), vehicle: Klucel (hydroxypropylcellulose) (HPC)
[10] = dose: 100.0 mg/kg/injection, schedule: Q04DX003 (ip), vehicle: Klucel (hydroxypropylcellulose) (HPC)
[11] = dose: 200.0 mg/kg/injection, schedule: Q04DX003 (ip), vehicle: Klucel (hydroxypropylcellulose) (HPC)
[12] = dose: 400.0 mg/kg/injection, schedule: Q04DX003 (ip), vehicle: Klucel (hydroxypropylcellulose) (HPC)
[13] = dose: 75.0 mg/kg/injection, schedule: Q01DX001 (ip), vehicle: other
[14] = dose: 150.0 mg/kg/injection, schedule: Q01DX001 (ip), vehicle: other
[15] = dose: 100.0 mg/kg/injection, schedule: Q01DX001 (ip), vehicle: carboxymethylcellulose (CMC)
[16] = dose: 100.0 mg/kg/injection, schedule: Q01DX009 (ip), vehicle: saline with Tween-80
[17] = dose: 200.0 mg/kg/injection, schedule: Q01DX001 (ip), vehicle: carboxymethylcellulose (CMC)
[18] = dose: 200.0 mg/kg/injection, schedule: Q01DX009 (ip), vehicle: saline with Tween-80
[19] = dose: 400.0 mg/kg/injection, schedule: Q01DX001 (ip), vehicle: carboxymethylcellulose (CMC)
[20] = dose: 400.0 mg/kg/injection, schedule: Q01DX009 (ip), vehicle: saline with Tween-80
[21] = dose: 25.0 mg/kg/injection, schedule: Q04DX003 (ip), vehicle: saline
[22] = dose: 100.0 mg/kg/injection, schedule: Q01DX001 (ip), vehicle: saline

Measured: T/C

O=C1CCCN1C1=CC2=C(CCc3ccccc32)S(=O)(=O)O1
inactive: dose: 100.0 mg/kg/injection, schedule: Q01DX009 (ip), vehicle: saline 90 % of control | [1] 100 % of control | dose: 200.0 mg/kg/injection, schedule: Q01DX009 (ip), vehicle: saline 90 % of control | [2] 94 % of control | dose: 400.0 mg/kg/injection, schedule: Q01DX009 (ip), vehicle: saline 95 % of control | [3] 108 % of control

CC1(c2ccc[n+](CC(=O)c3ccccc3)c2)OCCO1
inactive: dose: 75.0 mg/kg/injection, schedule: Q01DX001 (ip), vehicle: saline 104 % of control | dose: 150.0 mg/kg/injection, schedule: Q01DX001 (ip), vehicle: saline 105 % of control

C[CH2][Ge]1([CH2]C)[CH2]CC2(C[CH2]1)NC(=O)NC2=O
inactive: dose: 100.0 mg/kg/injection, schedule: Q04DX002 (ip), vehicle: saline 103 % of control | dose: 200.0 mg/kg/injection, schedule: Q04DX002 (ip), vehicle: saline 100 % of control | dose: 400.0 mg/kg/injection, schedule: Q04DX002 (ip), vehicle: saline 96 % of control

CCCCC(C(C)=O)C(C)=O
inactive: [4] 100 % of control | [5] 86 % of control | [6] 100 % of control | [7] 93 % of control | [8] 89 % of control | [9] 86 % of control

Cc1ccc(C)c(NC(=O)Oc2ccc3ccccc3c2)c1
inactive: [4] 93 % of control | [10] 107 % of control | [11] 107 % of control | [8] 91 % of control | [12] 97 % of control

C#CC(C)OCC(C)OC(C)=O (centres undefined)
inactive: dose: 25.0 mg/kg/injection, schedule: Q01DX009 (ip), vehicle: acetone 95 % of control | dose: 50.0 mg/kg/injection, schedule: Q01DX009 (ip), vehicle: acetone 94 % of control | dose: 100.0 mg/kg/injection, schedule: Q01DX009 (ip), vehicle: acetone 99 % of control | dose: 100.0 mg/kg/injection, schedule: Q04DX003 (ip), vehicle: acetone 100 % of control | dose: 150.0 mg/kg/injection, schedule: Q01DX009 (ip), vehicle: saline 115 % of control | dose: 225.0 mg/kg/injection, schedule: Q01DX009 (ip), vehicle: saline 95 % of control | dose: 335.0 mg/kg/injection, schedule: Q01DX009 (ip), vehicle: saline 93 % of control

CCCCCOC(=O)C(O)C(C)(Cl)c1ccccc1 (centres undefined)
inactive: [5] 100 % of control | [7] 111 % of control | [9] 100 % of control

O=C1C=C2CCCC2CC1 (centres undefined)
inactive: [13] 97 % of control | dose: 75.0 mg/kg/injection, schedule: Q04DX003 (ip), vehicle: other 93 % of control | [14] 92 % of control | dose: 150.0 mg/kg/injection, schedule: Q04DX003 (ip), vehicle: other 98 % of control | dose: 300.0 mg/kg/injection, schedule: Q01DX001 (ip), vehicle: other 94 % of control | dose: 300.0 mg/kg/injection, schedule: Q04DX003 (ip), vehicle: other 92 % of control

Cc1ccc(N2SC(Cl)(Cl)N(c3ccc(C)cc3)SC2(Cl)Cl)cc1
inactive: [10] 94 % of control | [11] 90 % of control | [12] 100 % of control

COC(=O)C1OCOC2C(COS(=O)(=O)c3ccc(C)cc3)OCOC12 (centres undefined)
inactive: dose: 50.0 mg/kg/injection, schedule: Q04DX002 (ip), vehicle: Klucel (hydroxypropylcellulose) (HPC) 100 % of control | [5] 98 % of control and 111 % of control | [7] 95 % of control and 101 % of control | [9] 101 % of control

CN(C)c1ccc(/C=C2\C=Cc3ccccc32)cc1F
inactive: [15] 92 % of control | [16] 100 % of control | [17] 95 % of control | [18] 94 % of control | [19] 97 % of control | [20] 98 % of control

COc1ccc(C(=O)/C=C/c2ccc3c(c2)OCO3)cc1
inactive: [10] 100 % of control | [11] 94 % of control | [12] 93 % of control

CCN(C)CCC(C=NCC(CCN(C)CC)(CCN(C)CC)c1cccc2ccccc12)(CCN(C)CC)c1cccc2ccccc12
inactive: dose: 6.25 mg/kg/injection, schedule: Q01DX009 (ip), vehicle: saline 103 % of control | dose: 12.5 mg/kg/injection, schedule: Q01DX009 (ip), vehicle: saline 96 % of control | dose: 12.5 mg/kg/injection, schedule: Q04DX003 (ip), vehicle: saline 101 % of control | dose: 25.0 mg/kg/injection, schedule: Q01DX009 (ip), vehicle: saline 111 % of control | [21] 106 % of control

c1ccc2c(c1)C1c3cccc[n+]3C2CC1n1c2ccccc2c2ccccc21 (centres undefined)
inactive: dose: 12.5 mg/kg/injection, schedule: Q01DX009 (ip), vehicle: Klucel (hydroxypropylcellulose) (HPC) 106 % of control | dose: 12.5 mg/kg/injection, schedule: Q04DX003 (ip), vehicle: Klucel (hydroxypropylcellulose) (HPC) 111 % of control | dose: 25.0 mg/kg/injection, schedule: Q01DX009 (ip), vehicle: Klucel (hydroxypropylcellulose) (HPC) 106 % of control | dose: 25.0 mg/kg/injection, schedule: Q04DX003 (ip), vehicle: Klucel (hydroxypropylcellulose) (HPC) 106 % of control | dose: 50.0 mg/kg/injection, schedule: Q04DX003 (ip), vehicle: Klucel (hydroxypropylcellulose) (HPC) 91 % of control | [4] 102 % of control | [1] 93 % of control | [6] 94 % of control | [2] 98 % of control | [8] 94 % of control | [3] 94 % of control

Cc1ccc([N+](=O)[O-])cc1O
inactive: [21] 98 % of control | dose: 50.0 mg/kg/injection, schedule: Q04DX003 (ip), vehicle: saline 102 % of control | [22] 97 % of control | [1] 97 % of control

COc1cc(/C=C2\C=Nc3ccccc32)ccc1O
inactive: [5] 97 % of control | [7] 105 % of control | [9] 102 % of control

CC1CCC(C(O)(C(=O)O)C2CCCCC2)CC1 (centres undefined)
inactive: [13] 104 % of control | [14] 101 % of control

CC(=O)OC1=C(c2c(C)cc(C)c(Br)c2C)C(=O)C(OC(C)=O)=C(c2c(C)cc(C)c(Br)c2C)C1=O
inactive: [10] 104 % of control | [11] 100 % of control | [12] 98 % of control

c1ccc2c(c1)ccc1c3c([nH]c12)CCCC3
inactive: [15] 88 % of control | [17] 98 % of control | [19] 88 % of control

OC(CNc1ccccc1)CN1CCCCC1 (centres undefined)
inactive: [1] 94 % of control

COC(=O)c1sc2ccccc2c1CC#N
inactive: [15] 103 % of control | [17] 86 % of control | [19] 103 % of control

CCOC(=O)CCC(C)(C#N)c1ccccc1 (centres undefined)
inactive: [16] 104 % of control | dose: 100.0 mg/kg/injection, schedule: Q04DX003 (ip), vehicle: saline with Tween-80 108 % of control | [18] 98 % of control | dose: 200.0 mg/kg/injection, schedule: Q04DX003 (ip), vehicle: saline with Tween-80 99 % of control | [20] 97 % of control | dose: 400.0 mg/kg/injection, schedule: Q04DX003 (ip), vehicle: saline with Tween-80 106 % of control

CCCCCCC(CCC1CCCCC1)C(=O)O (centres undefined)
inactive: dose: 100.0 mg/kg/injection, schedule: Q01DX001 (ip), vehicle: saline with Tween-80 88 % of control | dose: 200.0 mg/kg/injection, schedule: Q01DX001 (ip), vehicle: saline with Tween-80 96 % of control | dose: 400.0 mg/kg/injection, schedule: Q01DX001 (ip), vehicle: saline with Tween-80 92 % of control

OCC1OC(n2c(=S)[nH]c3ccccc32)C(O)C1O (centres undefined)
inactive: [22] 108 % of control | dose: 200.0 mg/kg/injection, schedule: Q01DX001 (ip), vehicle: saline 100 % of control | dose: 400.0 mg/kg/injection, schedule: Q01DX001 (ip), vehicle: saline 106 % of control

Cc1ccc(NS(=O)(=O)c2ccccc2)cc1Cl
inactive: [4] 106 % of control | [10] 108 % of control | [6] 109 % of control | [11] 98 % of control | [8] 98 % of control | [12] 97 % of control

O=C(O)c1cccc(F)c1C(=O)c1ccc2ccccc2c1 (tested in a mixture with another compound)
inactive: [10] 105 % of control | [11] 86 % of control
